Laboratory results as given in ChEMBL document CHEMBL5352486, “Design, synthesis, in vitro - In vivo biological evaluation of novel thiazolopyrimidine compounds as antileishmanial agent with PTR1 inhibition” (Eur J Med Chem, 2023).
In brackets after ≈: the same amount, converted by molar mass.

How the values were obtained:
L929 = test: (§1) Cytotoxicity against mouse L929 cells by alamar blue method; format: toxicity, cell-based; conditions: l929
[1] = as §1; format: toxicity, cell-based; conditions: mouse, L929 cells
Leishmania tropica [2] = test: Antileishmanial activity against Leishmania tropica MHOM/A7/1974/SAF-K27 incubated for 48 hrs by Neubauer hemocytometer analysis; format: functional, organism-based; conditions: MHOM/A7/1974/SAF-K27, 48 h
RAW264.7 = test: (§2) Cytotoxicity against mouse RAW264.7 cells by alamar blue method; format: toxicity, cell-based; conditions: raw264.7
[3] = as §2; format: toxicity, cell-based; conditions: mouse, RAW264.7 cells
[4] = tested on: DHFR (human) versus PTR1 (Leishmania major); test: Selectivity index, ratio of IC50 for human DHFR to IC50 for Leishmania major PTR1; format: toxicity; conditions: human DHFR enzyme and Leishmania major PTR1 enzyme, read-out: Ratio IC50
Pteridine reductase 1 = molecular target: T1, Pteridine reductase 1 (Leishmania major, UniProt Q01782); test: Inhibition of recombinant Leishmania major PTR1 expressed in Escherichia coli BL21 using folic acid as substrate in presence of NADPH
T1 sequence (Q01782 whole entry): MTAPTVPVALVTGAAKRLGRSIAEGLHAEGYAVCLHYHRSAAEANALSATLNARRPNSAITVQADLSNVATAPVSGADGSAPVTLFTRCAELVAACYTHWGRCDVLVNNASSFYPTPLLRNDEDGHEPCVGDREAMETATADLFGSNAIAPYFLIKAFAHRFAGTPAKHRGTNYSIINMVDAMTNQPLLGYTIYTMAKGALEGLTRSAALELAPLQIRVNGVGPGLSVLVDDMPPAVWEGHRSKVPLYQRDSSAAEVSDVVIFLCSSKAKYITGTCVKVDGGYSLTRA

Leishmania infantum [5] = test: Antileishmanial activity against Leishmania infantum MHOM/TN/1980/IPT1 incubated for 48 hrs by Neubauer hemocytometer analysis; format: functional, organism-based; conditions: MHOM/TN/1980/IPT1, 48 h
Dihydrofolate reductase = molecular target: T2, Dihydrofolate reductase (Homo sapiens, UniProt P00374); test: Inhibition of human DHFR using dihydrofolate as substrate in presence of NADPH; format: toxicity
T2 sequence (P00374 whole entry): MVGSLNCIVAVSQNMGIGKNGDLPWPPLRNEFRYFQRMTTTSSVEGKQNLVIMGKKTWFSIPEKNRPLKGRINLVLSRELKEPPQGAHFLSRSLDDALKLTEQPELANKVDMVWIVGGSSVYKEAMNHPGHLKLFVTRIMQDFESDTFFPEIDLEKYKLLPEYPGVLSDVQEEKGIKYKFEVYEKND

Leishmania tropica [6] = test: Antileishmanial activity against Leishmania tropica MHOM/A7/1974/SAF-K27 incubated for 48 hrs by XTT method; format: functional, organism-based; conditions: MHOM/A7/1974/SAF-K27, 48 h
Leishmania infantum [7] = test: Antileishmanial activity against Leishmania infantum MHOM/TN/1980/IPT1 incubated for 48 hrs by XTT method; format: functional, organism-based; conditions: MHOM/TN/1980/IPT1, 48 h

- IC50 (Leishmania tropica [2]): 15.6 µg/mL (≈ 40.2 µM)
- IC50 (Pteridine reductase 1): 28.4 µM
- IC50 (Leishmania infantum [5]): 15.7 µg/mL (≈ 40.3 µM)
Compound: CN1CCN(c2ncc3nc(NC(=O)c4ccc(Cl)cc4)sc3n2)CC1
- log10 IC50 (µg/mL) (L929): 1.41
- IC50 [1]: 25.7 µg/mL (≈ 66.1 µM)
- log10 IC50 (µg/mL) (RAW264.7): 1.15
- IC50 [3]: 14.1 µg/mL (≈ 36.3 µM)
- selectivity ratio [4]: 9.54
- IC50 (Dihydrofolate reductase): 271 µM
- IC50 (Leishmania tropica [6]): 15.3 µg/mL (≈ 39.4 µM)
- IC50 (Leishmania infantum [7]): 15.4 µg/mL (≈ 39.7 µM)
